The text below walks through data of patent US20220364989A1, “METHOD FOR MEASURING PHOTOTOXICITY OR PHOTOALLERGY AND REAGENT FOR USE THEREIN” (FUJIFILM Corporation, priority 2018, published 2022).

Series [1] can be described thus: Average score of NAC and NAL depletion and phototoxicity or photoallergy determination, fluorescence detection. The note with it: for Average score (%) under light irradiation / Average score (%): under light irradiation; for Average score (%): single compound.
Experimental: (§1) After being spun down in a centrifuge, the reaction solutions are irradiated with light at 2,000 μW/cm^2 using an SXL-2500V2 ultraviolet irradiation apparatus (manufactured by SERIC., Ltd.) for 1 hour, followed by incubation at 25° C. in a light-shielded state for 23 hours. As controls without light irradiation, reaction solutions are prepared, followed by incubation at 25° C. in a light-shielded state for 24 hours.
(§2) As the conditions without light irradiation, the 1 mmol/L test substance solutions were each reacted with the nucleophilic reagents, namely, NAC and NAL, at 25° C. for 24 hours. As the conditions with light irradiation, the 1 mmol/L test substance solutions were each irradiated at room temperature with light at 2,000 μW/cm^2 for 1 hour and were then reacted at 25° C. for 23 hours.
(§3) All reactions were performed on the 96-well plate. For each sample, n=3. As comparative controls, reaction solutions to which only the solvents, which are used to dissolve the test substances, were added were also prepared. The reaction solutions were prepared such that the concentrations of NAC and NAL were 5 μmon and the concentration of the test substance was 0.25 mmol/L. After 24 hours, HPLC measurements were made by two detection methods, namely, light absorption detection on a photodiode array (PDA) detector and fluorescence detection on a fluorescence detector. For PDA detection, a trifluoroacetic acid (TFA) aqueous solution was added to the reaction solutions to a final TFA concentration of 0.5% (v/v) before use in the HPLC measurements. For fluorescence detection, each sample was diluted tenfold with a 0.5% (v/v) trifluoroacetic acid (TFA) aqueous solution before use in the HPLC measurements.
(§4) The depletions of the nucleophilic reagents (NAC and NAL) were determined by UV detection at 281 nm or fluorescence detection at an excitation wavelength of 284 nm and a fluorescence wavelength of 333 nm under the HPLC measurement conditions given in “(5) HPLC Measurement” above.
(§5) As the conditions without light irradiation, the liquid mixtures were each reacted with the nucleophilic reagents, namely, NAC and NAL, at 25° C. for 24 hours. As the conditions with light irradiation, the liquid mixtures were each irradiated at room temperature with light at 2,000 μW/cm^2 for 1 hour and were then reacted at 25° C. for 23 hours.
(§6) All reactions were performed on the 96-well plate. For each sample, n=3. Reaction solutions to which only the solvent used for calculation of the depletions of NAC and NAL was added were also prepared. The reaction solutions were prepared such that the concentrations of NAC and NAL were 5 μmon and the concentration of the test substance was 0.5 mmol/L. After 24 hours, HPLC measurements were made by two detection methods, namely, light absorption detection on a photodiode array (PDA) detector and fluorescence detection on a fluorescence detector. For PDA detection, a trifluoroacetic acid (TFA) aqueous solution was added to the reaction solutions to a final TFA concentration of 0.5% (v/v) before use in the HPLC measurements.
A short description of series [2]: NAL depletion under and without ultraviolet irradiation, HPLC with fluorescence detection (284 nm excitation, 333 nm fluorescence). As to conditions: for NAL Depletion (%) under light irradiation / NAL Depletion (%): under light irradiation; for NAL Depletion (%): single compound.
Experimental: (§7) A 1 mmol/L solution of a test substance in water, acetonitrile, acetone, or 5% by mass dimethyl sulfoxide (DMSO)/acetonitrile solution is prepared and used as a test substance solution. A solvent in which the test substance is soluble at a concentration of 1 mmol/L is used. If the test substance is soluble in a plurality of solvents, the solvent is selected in the following order of priority: water, acetonitrile, acetone, and 5% by mass DMSO/acetonitrile.
(§8) Test substance solutions are prepared on a 96-well plate (U96 PP-0.5 ML NATURAL, Thermo (NUNC)), mainly using a 12-channel pipette, and the reagents are added in the following amounts:
(§9) Nucleophilic reagents (NAC and NAL): 150 μL
Test substance solution: 50 μL
(§10) The plate is firmly sealed with a plate seal (resistant embossed seal, Shimadzu GLC Ltd.) and is shaken on a plate shaker (Titramax 100, Heidolph Instruments). After being spun down in a centrifuge, the reaction solutions are irradiated with light at 2,000 μW/cm^2 using an SXL-2500V2 ultraviolet irradiation apparatus (manufactured by SERIC., Ltd.) for 1 hour, followed by incubation at 25° C. in a light-shielded state for 23 hours. As controls without light irradiation, reaction solutions are prepared, followed by incubation at 25° C. in a light-shielded state for 24 hours.
(§11) For measurements using a fluorescence detector, 180 μL of the reaction stop solution (0.5% (v/v) TFA) is dispensed into each well of another plate in advance, and 20 μL of each sample is added so that the sample is diluted 10-fold.
(§12) The depletion of NAC or NAL is calculated from the average (n=3) peak area of unreacted NAC or NAL after the reaction and the average (n=3) peak area of NAC or NAL in a standard solution (no test substance added) by the following equations:
(§13) NAL depletion (% depletion)=[1−(average peak area of unreacted NAL after reaction/average peak area of NAL) in standard solution (no test substance added)]×100
(§14) The average peak area of unreacted NAL after the reaction is the average area calculated from three measurements on unreacted NAL after the reaction. The average peak area of NAL in a standard solution (no test substance added) is the average area calculated from three measurements on NAL in a reaction solution prepared by adding the solvent used for dissolution of the test substance instead of the test substance solution.
as §2, §3
Series [3] in a line: NAL depletion under and without ultraviolet irradiation, HPLC with UV detection (281 nm).
Experimental: as §7, §8, §9
Test substance solution: 50 μL
as §10, §11, §12, §13, §14, §2, §3
Series [4] is described as follows: NAC depletion under and without ultraviolet irradiation, HPLC with fluorescence detection (284 nm excitation, 333 nm fluorescence). The note with it: for NAC Depletion (%) under light irradiation / NAC Depletion (%): under light irradiation; for NAC Depletion (%): single compound.
Experimental: as §7, §8, §9
Test substance solution: 50 μL
as §10, §11, §12
(§15) NAC depletion (% depletion)=[1−(average peak area of unreacted NAC after reaction/average peak area of NAC) in standard solution (no test substance added)]×100
(§16) The average peak area of unreacted NAC after the reaction is the average area calculated from three measurements on unreacted NAC after the reaction. The average peak area of NAC in a standard solution (no test substance added) is the average area calculated from three measurements on NAC in a reaction solution prepared by adding the solvent used for dissolution of the test substance instead of the test substance solution.
as §2, §3
A short description of series [5]: Average score of NAC and NAL depletion and phototoxicity or photoallergy determination, UV detection.
Experimental: as §1, §2, §3, §4, §5, §6
Series [6] can be described thus: NAC depletion under and without ultraviolet irradiation, HPLC with UV detection (281 nm).
Experimental: as §7, §8, §9
Test substance solution: 50 μL
as §10, §11, §12, §15, §16, §2, §3
The conditions of series [7]: cited from earlier work.
The conditions of series [8]: cited from earlier work. The source holds these as a separate data set.
The mark [9] stands for this setting: photoallergic compound concentration 0.05 mg/mL.
The mark [10] stands for this setting: photoallergic compound concentration 0.2 mg/mL.
[11] abbreviates: photoallergic compound concentration 0.5 mg/mL.

Where a name gives a salt, the structure may show the parent alone. Read-outs that look alike come from different tables or passages of the source.

In the case of Tetrachlorosalicylanilide [1-4], the “Difference in depletion (under light irradiation - without light irradiation) Average score (%)” value in series [1] (setting [9]) is recorded as 54.5%; in series [1] (setting [10]) it was 58.9%; in series [1] (setting [11]) it was 54.3%. In addition, the “Average score (%) under light irradiation” value is given as 65.4% in series [1] (setting [9]); 85.2% in series [1] (setting [10]); 93.0% in series [1] (setting [11]); 44.0% in series [5] (setting [9]); −14.9% in series [5] (setting [10]); −128.5% in series [5] (setting [11]). The “Average score (%) without light irradiation” value came to 10.9% in series [1] (setting [9]); 26.2% in series [1] (setting [10]); 38.7% in series [1] (setting [11]); 17.0% in series [5] (setting [9]); 35.4% in series [5] (setting [10]); 48.2% in series [5] (setting [11]). For the same compound, the “Difference in depletion (under light irradiation - without light irradiation) NAL (%)” value was found to be 32.5% in series [2] (setting [9]); 72.6% in series [2] (setting [10]); 87.1% in series [2] (setting [11]); 30.3% in series [3] (setting [9]); 66.5% in series [3] (setting [10]); 78.7% in series [3] (setting [11]). The “NAL Depletion (%) under light irradiation” value in series [2] (setting [9]) is 32.5%; in series [2] (setting [10]), 72.9%; in series [2] (setting [11]), 88.9%; in series [3] (setting [9]), 30.1%; in series [3] (setting [10]), 67.1%; in series [3] (setting [11]), “(81.3) %”. Besides, the “NAL Depletion (%) without light irradiation” value is given as 0.0% in series [2] (setting [9]); 0.2% in series [2] (setting [10]); 1.8% in series [2] (setting [11]); −0.2% in series [3] (setting [9]); 0.6% in series [3] (setting [10]); 2.6% in series [3] (setting [11]). Besides, the figures for the “Difference in depletion (under light irradiation - without light irradiation) NAC (%)” value in series [4] (setting [9]), in series [4] (setting [10]) and in series [4] (setting [11]) were 76.5%, 45.3% and 21.5%, respectively. For the same compound, the “NAC Depletion (%) under light irradiation” value is on record as 98.2% in series [4] (setting [9]); 97.5% in series [4] (setting [10]); 97.2% in series [4] (setting [11]); “(58.0) %” in series [6] (setting [9]); “(−96.9) %” in series [6] (setting [10]); “(−338.2) %” in series [6] (setting [11]). Moreover, the “NAC Depletion (%) without light irradiation” value in series [4] (setting [9]) came to 21.7%; in series [4] (setting [10]) it was 52.2%; in series [4] (setting [11]) it was 75.6%; in series [6] (setting [9]), 34.2%; in series [6] (setting [10]), 70.1%; in series [6] (setting [11]), 93.7%.
On to `COc1c2occc2cc2ccc(=O)oc12` [No. 3, 8-Methoxypsoralen, reference compound], for which, in series [1], the “Average score (%)” value worked out at 72.0%. Further, the “NAL Depletion (%)” value in series [2] stood at 45.4%. Moreover, the In vivo phototoxicity result in series [7] (in vivo) is reported as “Positive”. In addition, the “NAC Depletion (%)” value in series [4] was found to be 98.6%. The In vivo photoallergy entry in series [8] (in vivo) was “Positive”.
On to `Cc1c([N+](=O)[O-])c(C)c([N+](=O)[O-])c(C(C)(C)C)c1[N+](=O)[O-]` [No. 18, Musk xylene, reference compound], for which the “Average score (%)” value in series [1] turned out to be 47.6%. The “NAL Depletion (%)” value in series [2] is 6.4%. In series [7] (literature classification), the In vivo phototoxicity result is on record as “Negative”. Besides, in series [4], the “NAC Depletion (%)” value was 88.9%. Further, the In vivo photoallergy entry in series [8] (literature classification) is given as “Positive”.
As to `Cc1ccc(C=C2C(=O)C3(C)CCC2C3(C)C)cc1` (stereo not shown) [No. 39, 4′-Methylbenzylidene camphor], in series [1], the “Average score (%)” value is 2.0%. Also, in series [7] (in vivo), the In vivo phototoxicity result is reported as “Negative”. For the same compound, the In vivo photoallergy result in series [8] (in vivo) is given as “Negative”.
Turning to “Tetrachlorosalicylanilide [No. 12, reference compound]”, the “Average score (%)” value in series [1] turned out to be 92.0%. Besides, the “NAL Depletion (%)” value in series [2] was 86.5%. In addition, the In vivo phototoxicity result in series [7] (literature classification) is on record as “Positive”. In addition, in series [4], the “NAC Depletion (%)” value worked out at 97.4%. For the same compound, in series [8] (literature classification), the In vivo photoallergy result is recorded as “Positive”.
For the compound `CCO` [No. 50, Ethanol], the “Average score (%)” value in series [1] turned out to be 0.0%. In series [7] (in vivo), the In vivo phototoxicity entry is “Negative”. The In vivo photoallergy entry in series [8] (in vivo) is “Negative”.
Regarding `CC(C)O` [No. 47, 2-Propanol], the “Average score (%)” value in series [1] was 0.2%. Also, the In vivo phototoxicity entry in series [7] (in vivo) is “Negative”. The In vivo photoallergy entry in series [8] (in vivo) was “Negative”.
Regarding `CC1(C)S[C@@H]2[C@H](NC(=O)Cc3ccccc3)C(=O)N2[C@H]1C(=O)O` [No. 44, Penicillin G, reference compound], the “Average score (%)” value in series [1] stood at 1.8%. Besides, in series [2], the “NAL Depletion (%)” value turned out to be 1.2%. Further, the In vivo phototoxicity result in series [7] (literature classification) was “Negative”. Besides, in series [4], the “NAC Depletion (%)” value is 2.4%. The In vivo photoallergy entry in series [8] (literature classification) was “Negative”.
In the case of `CCCCCCCCCCCC(=O)O` [compound 53, Lauric acid], the In vivo phototoxicity entry in series [7] (reported in References 1 to 3) is “Negative”. Moreover, the In vivo photoallergy entry in series [8] (reported in References 1 and 2) was “Negative”.
For the compound `COC(=O)c1ccccc1O` [No. 43, Methyl salicylate], the In vivo phototoxicity entry in series [7] (literature classification) is on record as “Negative”. Further, the In vivo photoallergy entry in series [8] (literature classification) is listed as “Negative”.
Regarding `CN(C)CCCN1c2ccccc2Sc2ccc(Cl)cc21` [No. 1, Chlorpromazine HCl], in series [7] (literature classification), the In vivo phototoxicity result is “Positive”. Besides, the In vivo photoallergy entry in series [8] (literature classification) is “Positive”.
Turning to `CCCCCCCCCCCC(=O)O` [No. 53, Lauric acid], in series [7] (literature classification), the In vivo phototoxicity result was “Negative”. Further, the In vivo photoallergy entry in series [8] (literature classification) was “Negative”.
As for `COc1c2ccoc2cc2oc(=O)ccc12` [No. 31, 5-Methoxypsoralen], the In vivo phototoxicity result in series [7] (literature classification) is “Positive”. In addition, in series [8] (literature classification), the In vivo photoallergy entry was “Negative”.
In the case of `COc1cc(O)c(C(=O)c2ccccc2)cc1S(=O)(=O)O` [No. 57, Sulisobenzone], in series [7] (literature classification), the In vivo phototoxicity entry is reported as “Negative”. Further, the In vivo photoallergy result in series [8] (literature classification) is on record as “Negative”.
Consider `Cc1ncc(CO)c(CO)c1O.Cl` [compound 9, Pyridoxine HCl], for which the In vivo phototoxicity result in series [7] (in vivo) is “Positive”. For the same compound, the In vivo photoallergy result in series [8] (in vivo) is on record as “Positive”.
